In US10357481B2 (MERCK SHARP & DOHME CORP., priority 2015, dated 2019):

Target: T1, human PDE2A1 (Homo sapiens, UniProt O00408)
T1 construct: GST; purchased BPS Bioscience (San Diego, Calif.) 60020; host or cells: insect cells
Test: IMAP FP PDE selectivity panel, human PDE2A1
Type: biochemical
Conditions: Lab B; read-out: Human PDE2 Ki (nM) Lab B
Procedure, shortened: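 IMAP FP read-out, run at room temperature in parallel with PDE1–11: enzyme at 20% substrate conversion, 50 nM FAM-cAMP containing 1000 nM cGMP, Tris pH 7.2/MgCl2/DTT buffer. Compounds as ten 3-fold dilutions. Reaction 60 min, stopped with binding reagent for 1 h before polarization measurement.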

T1 sequence (O00408 1-920 isoform O00408-2): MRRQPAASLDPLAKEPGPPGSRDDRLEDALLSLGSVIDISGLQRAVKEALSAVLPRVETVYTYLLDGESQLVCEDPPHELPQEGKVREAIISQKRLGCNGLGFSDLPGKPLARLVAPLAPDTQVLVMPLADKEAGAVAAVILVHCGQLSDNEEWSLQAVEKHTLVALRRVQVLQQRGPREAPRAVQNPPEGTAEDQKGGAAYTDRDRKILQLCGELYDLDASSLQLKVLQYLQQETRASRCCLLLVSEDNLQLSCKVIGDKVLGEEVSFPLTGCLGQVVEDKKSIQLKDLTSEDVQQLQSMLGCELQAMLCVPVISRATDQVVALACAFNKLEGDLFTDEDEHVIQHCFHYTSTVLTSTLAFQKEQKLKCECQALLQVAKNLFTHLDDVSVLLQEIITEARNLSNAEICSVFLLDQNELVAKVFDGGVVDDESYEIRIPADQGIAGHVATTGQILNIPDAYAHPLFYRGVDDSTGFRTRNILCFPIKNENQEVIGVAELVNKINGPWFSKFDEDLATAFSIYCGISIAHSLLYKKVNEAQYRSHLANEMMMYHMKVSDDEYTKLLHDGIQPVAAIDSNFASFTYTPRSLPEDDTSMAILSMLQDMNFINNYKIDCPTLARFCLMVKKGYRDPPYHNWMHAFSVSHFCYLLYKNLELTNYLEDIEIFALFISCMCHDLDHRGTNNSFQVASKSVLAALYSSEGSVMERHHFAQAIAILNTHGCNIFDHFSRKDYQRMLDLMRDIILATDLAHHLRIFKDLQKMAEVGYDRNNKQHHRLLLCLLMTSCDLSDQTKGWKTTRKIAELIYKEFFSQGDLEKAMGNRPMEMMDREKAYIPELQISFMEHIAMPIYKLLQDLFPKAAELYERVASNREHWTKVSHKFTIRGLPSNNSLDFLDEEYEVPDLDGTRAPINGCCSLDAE

| Compound | Ki [nM] |
| --- | --- |
| CNc1nc2nc(C)cc(NC3(c4ccc(C(F)(F)F)c(F)c4)CC3)n2n1 [Example 257, N^7-{1-[3-Fluoro-4-(trifluoromethyl)phenyl]cyclopropyl}-N^2,5-dimethyl[1,2,4]triazolo[1,5-a]pyrimidine-2,7-diamine] | 10 |
| C[C@@H](Nc1cnnc2ncnn12)c1ccc(S(F)(F)(F)(F)F)cc1 [Example 259, (R)—N-{1-[4-(Pentafluoro-λ^6-sulfanyl)phenyl]ethyl}-[1,2,4]triazolo[5,1-a][1,2,4]trizain-4-amine] | 1430 |
| Cc1cc(OC2(c3ccc(C(F)(F)F)cc3)CC2)n2ncnc2n1 [Example 262, 5-Methyl-7-({1-[4-(trifluoromethyl)phenyl]cyclopropyl}oxy)[1,2,4]triazolo[1,5-a]pyrimidine] | 137 |
| Cc1cc(NC2(c3ccc(C(F)(F)F)c(F)c3)CC2)n2ncnc2c1 [Example 263, N-(1-(3-Fluoro-4-(trifluoromethyl)phenyl)cyclopropyl)-7-methyl-[1,2,4]triazolo[1,5-a]pyridin-5-amine] | 101 |
| Cc1cc(N[C@@H](c2ccc(C(F)(F)F)c(F)c2)C(C)(C)C)n2ncnc2c1 [Example 264, (R)—N-{1-[3-Fluoro-4-(trifluoromethyl)phenyl]-2,2-dimethylpropyl}-7-methyl-[1,2,4]triazolo[1,5-a]pyridin-5-amine] | 292 |
| Cc1cc(N[C@@H](c2ccc(C(F)(F)F)cc2)C(C)(C)O)n2ncnc2c1 [Example 265, (1S)-2-Methyl-1-[(7-methyl[1,2,4]triazolo[1,5-a]pyridin-5-yl)amino]-1-[4-(trifluoromethyl)phenyl]propan-2-ol] | 82 |
| OCc1cc(NC2(c3ccc(C(F)(F)F)c(F)c3)CC2)n2ncnc2c1 [Example 266, (5-((1-(3-Fluoro-4-(trifluoromethyl)phenyl)cyclopropyl)amino)-[1,2,4]triazolo[1,5-a]pyridin-7-yl)methanol] | 13 |
| C[C@@H](Nc1cc(CO)cc2ncnn12)c1ccc(C(F)(F)F)cc1 [Example 267, [5-({(1R)-1-[4-(Trifluoromethyl)phenyl]ethyl}amino)[1,2,4]triazolo[1,5-a]pyridin-7-yl] methanol] | 236 |
| C[C@H](Nc1cc(CO)cc2ncnn12)c1ccc(C(F)(F)F)cc1 [Example 268, [5-({(1S)-1-[4-(Trifluoromethyl)phenyl]ethyl}amino)[1,2,4]triazolo[1,5-a]pyridin-7-yl] methanol] | 2080 |
| CC[C@@H](Nc1cc(CO)cc2ncnn12)c1ccc(C(F)(F)F)c(F)c1 [Example 269, [5-({(1R)-1-[3-Fluoro-4-(trifluoromethyl)phenyl]propyl}amino)[1,2,4]triazolo [1,5-a]pyridin-7-yl] methanol] | 181 |
| OCc1cc(NC2(c3ccc(C(F)(F)F)cc3F)CC2)n2ncnc2c1 [Example 270, [5-({1-[2-Fluoro-4-(trifluoromethyl)phenyl]cyclopropyl}amino)[1,2,4]triazolo[1,5-a]pyridin-7-yl] methanol] | 101 |
| C[C@@H](Nc1cc(CO)cc2ncnn12)c1ccc(OC(F)(F)F)cc1 [Example 271, [5-({(1R)-1-[4-(Trifluoromethoxy)phenyl]ethyl}amino)[1,2,4]triazolo[1,5-a]pyridin-7-yl] methanol] | 530 |
| C[C@@H](Nc1cc(CO)cc2ncnn12)c1ccc(C(F)(F)F)c(F)c1 [Example 272, [5-({(1R)-1-[3-Fluoro4-(trifluoromethyl)phenyl]ethyl}amino)[1,2,4]triazolo[1,5-a]pyridin-7-yl]methanol] | 121 |
| CC(C)(O)[C@@H](Nc1cc(CO)cc2ncnn12)c1ccc(OC(F)(F)F)cc1F [Example 273, (1S)-1-[2-Fluoro-4-(trifluoromethoxy)phenyl]-1-{[7-(hydroxymethyl)[1,2,4]triazolo [1,5-a]pyridin-5-yl]amino}-2-methylpropan-2-ol] | 102 |
| Fc1cc(C2(Nc3cc(C(F)F)cc4ncnn34)CC2)ccc1C(F)(F)F [Example 274, 7-(Difluoromethyl)-N-(1-(3-fluoro-4-(trifluoromethy)phenyl)cyclopropyl)-[1,2,4]triazol-[1,5-a]pyridin-5-amine] | 11 |
| CC(O)c1cc(NC2(c3ccc(C(F)(F)F)c(F)c3)CC2)n2ncnc2c1 (stereo not drawn) [Example 275, 1-(5-((1-(3-Fluoro-4-(trifluoromethyl)phenyl)cyclopropyl)amino)-[1,2,4]triazolo[1,5-a]pyridin-7-yl)ethanol] | 111 |
| Fc1cc(C2(Nc3cc(C(F)(F)F)cc4ncnn34)CC2)ccc1C(F)(F)F [Example 276, N-(1-(3-fluoro-4-(trifluoromethyl)phenyl)cyclopropyl)-7-(trifluoromethyl)-[1,2,4]triazolo[1,5-a]pyridin-5-amine] | 68 |

| Compound | Ki [nM] |
| --- | --- |
| CC(C)(O)[C@@H](Nc1cc(C(F)(F)F)cc2ncnn12)c1ccc(C(F)(F)F)cc1 [Example 277, (1S)-2-Methyl-1-[4-(trifluoromethyl)phenyl]-1-{[7-(trifluoromethyl)[1,2,4]triazolo [1,5-a]pyridin-5-yl]amino} propan-2-ol] | 87 |
| CC(C)(O)[C@@H](Nc1cc(C(F)(F)F)cc2ncnn12)c1ccc(OC(F)(F)F)cc1F [Example 278, (1S)-1-[2-Fluoro-4-(trifluoromethoxy)phenyl]-2-methyl-1-{[7-(trifluoromethyl) [1,2,4]triazolo[1,5α]pyridin-5-yl]amino}propan-2-ol] | 92 |
| CC(C)(O)[C@@H](Nc1cc(C(F)F)cc2ncnn12)c1ccc(OC(F)(F)F)c(F)c1 [Example 279, (S)-1-((7-(Difluoromethyl)-[1,2,4]triazolo[1,5-a]pyridin-5-yl)amino)-1-(3-fluoro-4-(trifluoromethoxy)phenyl)-2-methylpropan-2-ol] | 41 |
| CC(C)(O)[C@@H](Nc1cc(C(F)F)cc2ncnn12)c1ccc(C(F)(F)F)cc1 [Example 280, (1S)-1-{[7-(Difluoromethyl) [1,2,4]triazolo[1,5-a]pyridin-5-yl]amino}-1-[4-(trifluoromethyl)phenyl]-2-methylpropan-2-ol] | 20 |
| CC(C)(O)[C@@H](Nc1cc(C(F)F)cc2ncnn12)c1ccc(OC(F)(F)F)cc1F [Example 281, (1S)-1-{[7-(Difluoromethyl) [1,2,4]triazolo[1,5-a]pyridin-5-yl]amino}-1-[2-fluoro-4-(trifluoromethoxy)phenyl]-2-methylpropan-2-ol] | 40 |
| CC(C)(O)[C@@H](Nc1cc(C(F)F)cc2ncnn12)c1ccc(S(F)(F)(F)(F)F)cc1 [Example 282, (1S)-1-{[7-(Difluoromethyl) [1,2,4]triazolo[1,5-a]pyridin-5-yl]amino}-2-methyl-1-[4-(pentafluoro-λ^6-sulfanyl)phenyl]propan-2-ol] | 7.8 |
| CC(C)(O)[C@H](Nc1cc(C(F)F)cc2ncnn12)c1ccc(S(F)(F)(F)(F)F)cc1 [Example 283, (1R)-1-{[7-(Difluoromethyl) [1,2,4]triazolo[1,5-a]pyridin-5-yl]amino}-2-methyl-1-[4-(pentafluoro-λ^6-sulfanyl)phenyl]propan-2-ol] | 498 |
| CC(C)(C)[C@@H](Nc1cncc2ncnn12)c1ccc(C(F)(F)F)c(F)c1 [Example 284] | 156 |
| Fc1cc(C2(Nc3cncc4ncnn34)CC2)ccc1C(F)(F)F [Example 285, N-{1-[3-Fluoro-4-(trifluoromethyl)phenyl]cyclopropyl}[1,2,4]triazolo [1,5-a]pyrazin-5-amine] | 22 |
| CC(C)(O)[C@@H](Nc1cncc2ncnn12)c1ccc(OC(F)(F)F)c(F)c1 [Example 286, (1S)-1-[3-Fluoro-4-(trifluoromethoxy)phenyl]-2-methyl-1-([1,2,4]triazolo[1,5-a]pyrazin-5-ylamino)propan-2-ol] | 209 |
| CC(C)(O)[C@@H](Nc1cncc2ncnn12)c1ccc(C(F)(F)F)cc1 [Example 287, (1S)-2-Methyl-1-([1,2,4]triazolo[1,5-a]pyrazin-5-ylamino)-1-[4-(trifluoromethyl)phenyl]propan-2-ol] | 150 |
| C[C@@H](Nc1cncc2ncnn12)c1ccc(C(F)(F)F)cc1 [Example 288] | 221 |
| C[C@H](Nc1cncc2ncnn12)c1ccc(C(F)(F)F)cc1 [Example 289] | > 2960 |
| FS(F)(F)(F)(F)c1ccc(C2(Nc3cncc4ncnn34)CC2)cc1 [Example 290, N-{1-[4-(Pentafluoro-λ^6-sulfanyl)phenyl]cyclopropyl} [1,2,4]triazolo[1,5-a]pyrazin-5-amine] | 90 |
| CC(C)(O)[C@@H](Nc1cc(C(F)(F)F)cc2nc(N)nn12)c1ccc(C(F)(F)F)cc1 [Example 294, (S)-1-((2-Amino-7-(trifluoromethyl)-[1,2,4]triazolo[1,5-a]pyridin-5-yl)amino)-2-methyl-1-(4-(trifluoromethyl)phenyl)propan-2-ol] | 678 |
| (R or S)-2,2-Dimethyl-3-(3-methyl-4-(trifluoromethoxy)phenyl)-3-(5-methyl-[1,2,4]triazolo[1,5-a]pyrimidin-7-ylamino)propan-1-ol [Example 231] | 7.3 |
